Measured values reported in patent US11905259B1, “2-(benzo[d]oxazol-2-yl)-N′-(4-(dimethylamino)benzoyloxy)acetimidamide as an antimicrobial compound” (KING FAISAL UNIVERSITY, priority 2023, dated 2024).

How the values were obtained:
[1] = test system: Chrysosporium keratinophilum; assay: agar plate disc-diffusion, antifungal activity; format: cell-based
Procedure: (§1) The agar plate disc-diffusion method was applied. […] The discs were then placed onto the surface of agar plates (nutrient agar for bacteria and Sabouraud's dextrose agar for fungi) seeded with the test organism. Each plate contained 15 mL of the agar medium, previously seeded with 0.2 mL of the broth culture of each organism pregrown for 18 hours. The plates were incubated at 37° C. for 48 hours, and 72 hours for fungi. The inhibition zones was measured in mm. Discs impregnated with DMSO were used as a control, and its inhibition zone was subtracted from the tested compound actual inhibition zone.

Aspergillus flavus = assay: agar plate disc-diffusion, antifungal activity; format: cell-based
Procedure: (§2) The agar plate disc-diffusion method was applied. Sterilized filter papers (6 mm in diameter) were wetted with 10 μL of a solution of 2-(benzo[d]oxazol-2-yl)-N′-(4-(dimethylamino)benzoyloxy)acetimidamide (3) to be tested, containing 10 mg/mL in DMSO, and the discs were allowed to air dry. The discs were then placed onto the surface of agar plates (nutrient agar for bacteria and Sabouraud's dextrose agar for fungi) seeded with the test organism. Each plate contained 15 mL of the agar medium, previously seeded with 0.2 mL of the broth culture of each organism pregrown for 18 hours. The plates were incubated at 37° C. for 48 hours, and 72 hours for fungi. The inhibition zones was measured in mm. Discs impregnated with DMSO were used as a control, and its inhibition zone was subtracted from the tested compound actual inhibition zone.

Pseudomonas aeruginosa = assay: agar plate disc-diffusion, antibacterial activity; format: cell-based
Procedure: as §1

Escherichia coli = assay: agar plate disc-diffusion, antibacterial activity; format: cell-based
Procedure: as §1

Bacillus cereus = assay: agar plate disc-diffusion, antibacterial activity; format: cell-based
Procedure: as §1

Staphylococcus aureus = assay: agar plate disc-diffusion, antibacterial activity; format: cell-based
Procedure: as §1

different microbes = assay: antimicrobial screening, overall statement; format: cell-based; settings: against different microbes (bacteria and fungi screened)
Procedure: as §2

[2] = A = concentration of comp. = 10,000 uL
[3] = B = concentration of comp. = 30,000 uL
[4] = C = concentration of comp. = 50,000 uL

| Compound | inhibition zone [1, 2] [mm] | inhibition zone [1, 3] [mm] | inhibition zone [1, 4] [mm] | inhibition zone (Aspergillus flavus; [2]) [mm] | inhibition zone (Aspergillus flavus; [3]) [mm] | inhibition zone (Aspergillus flavus; [4]) [mm] | inhibition zone (Pseudomonas aeruginosa; [2]) [mm] | inhibition zone (Pseudomonas aeruginosa; [3]) [mm] | inhibition zone (Pseudomonas aeruginosa; C =) [mm] | inhibition zone (Escherichia coli; [2]) [mm] | inhibition zone (Escherichia coli; [3]) [mm] | inhibition zone (Escherichia coli; [4]) [mm] | inhibition zone (Bacillus cereus; [2]) [mm] | inhibition zone (Bacillus cereus; [3]) [mm] | inhibition zone (Bacillus cereus; [4]) [mm] | inhibition zone (Staphylococcus aureus; [2]) [mm] | inhibition zone (Staphylococcus aureus; [3]) [mm] | inhibition zone (Staphylococcus aureus; C = concentration of comp.) [mm] | melting point [°C] | antimicrobial activities (different microbes) |
| --- | --- | --- | --- | --- | --- | --- | --- | --- | --- | --- | --- | --- | --- | --- | --- | --- | --- | --- | --- | --- |
| O=C(O)c1cn(C2CC2)c2cc(N3CCNCC3)c(F)cc2c1=O [Cip., ciprofloxacin, reference compound] | 30 | 33 | 55 | 28 | 31 | 43 | 29 | 30 | 53 | 30 | 39 | 60 | 29 | 31 | 42 | 43 | 44 | 53 | – | – |
| CN(C)c1ccc(C(=O)O/N=C(\N)Cc2nc3ccccc3o2)cc1 [Compound 3, 2-(benzo[d]oxazol-2-yl)-N′-(4-(dimethylamino)benzoyloxy)acetimidamide] | 25 | 29 | 46 | 21 | 25 | 37 | 25 | 28 | 39 | 27 | 34 | 49 | 26 | 28 | 41 | 17 | 22 | 34 | 165 to 166 | excellent |
